Assay results taken from the supplement of paper PMC11451515.

How the values were obtained:
Conditions in all cases: 48 h
[1] = tested on: NOMO1; test: cell viability relative to DMSO control; higher = less cytotoxic
Outline: (§1)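 NOMO1 or SEM cells were plated at 500 cells/well and P12-Ichikawa cells at 1000 cells/well in 1536-well plates (5 μl), after each leukemia line had been adapted for at least four passages in each medium. Pin dosing delivered library compounds in DMSO at 11 threefold concentrations, 47 μM to 0.79 nM. CellTiter-Glo One luminescence was read after 48 h at 37°C. Viability is reported as a per-plate percentage of DMSO wells, with cell-free wells as background.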

[2] = tested on: P12-Ichikawa; test: as above
Outline: as §1

[3] = tested on: SEM cells; test: as above
Outline: as §1

[4] = tested on: NOMO1; test: AUC of viability dose-response curve (% viability x log10 dose units); higher = less sensitive
Outline: (§2)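 Leukemia cells adapted to each medium were seeded at 500 or 1000 cells/well in 1536-well plates and dosed with library compounds in DMSO at 11 threefold doses from 47 μM to 0.79 nM for 48 h at 37°C. CellTiter-Glo One luminescence was normalised per plate to DMSO and cell-free wells, then fitted with a four-parameter log-logistic model over log10 doses. Area under the curve was taken from this fit by the trapezoidal rule, with curves above full viability scaled and curves failing quality control removed.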

[5] = tested on: P12-Ichikawa; test: as above
Outline: as §2

O=C(/C=C/c1cccnc1)NCCCCC1CCN(C(=O)c2ccccc2)CC1
cell viability [%]
Conditions	[1]	[2]	[3]
HPLM + 10% dialyzed FBS, 0.000781 µM	102	103	76.5
HPLM + 10% dialyzed FBS, 0.00234 µM	59.8	72.1	86.3
HPLM + 10% dialyzed FBS, 0.00702 µM	33.1	15.1	22.7
HPLM + 10% dialyzed FBS, 0.0211 µM	17.4	7.38	9.57
HPLM + 10% dialyzed FBS, 0.0632 µM	13.1	5.18	7.6
HPLM + 10% dialyzed FBS, 0.19 µM	7.89	4.94	6.37
HPLM + 10% dialyzed FBS, 0.569 µM	6.3	4.8	6.62
HPLM + 10% dialyzed FBS, 1.71 µM	7.27	4.59	6.08
HPLM + 10% dialyzed FBS, 5.12 µM	9.47	4.4	6.74
HPLM + 10% dialyzed FBS, 15.4 µM	10.6	4	6.78
HPLM + 10% dialyzed FBS, 46.1 µM	6.73	2.9	5.79
RPMI 5 mM glucose + 10% FBS, 0.000781 µM	105	103	103
RPMI 5 mM glucose + 10% FBS, 0.00234 µM	110	109	65.1
RPMI 5 mM glucose + 10% FBS, 0.00702 µM	47	16.9	14.8
RPMI 5 mM glucose + 10% FBS, 0.0211 µM	28	6.84	7.35
RPMI 5 mM glucose + 10% FBS, 0.0632 µM	12.9	5.28	21.9
RPMI 5 mM glucose + 10% FBS, 0.19 µM	9.19	5.01	5.86
RPMI 5 mM glucose + 10% FBS, 0.569 µM	8.33	4.19	6.67
RPMI 5 mM glucose + 10% FBS, 1.71 µM	8.21	4.32	6.71
RPMI 5 mM glucose + 10% FBS, 5.12 µM	8.16	3.69	5.95
RPMI 5 mM glucose + 10% FBS, 15.4 µM	8.07	2.71	5.65
RPMI 5 mM glucose + 10% FBS, 46.1 µM	7.6	1.74	3.92
RPMI 5 mM glucose + 10% dialyzed FBS, 0.000781 µM	110	102	105
RPMI 5 mM glucose + 10% dialyzed FBS, 0.00234 µM	75.6	109	32
RPMI 5 mM glucose + 10% dialyzed FBS, 0.00702 µM	39	24.4	13.8
RPMI 5 mM glucose + 10% dialyzed FBS, 0.0211 µM	30.7	8.02	7.49
RPMI 5 mM glucose + 10% dialyzed FBS, 0.0632 µM	16.8	5.06	7.08
RPMI 5 mM glucose + 10% dialyzed FBS, 0.19 µM	9.73	4.88	6.77
RPMI 5 mM glucose + 10% dialyzed FBS, 0.569 µM	7.83	4.59	6.47
RPMI 5 mM glucose + 10% dialyzed FBS, 1.71 µM	8.77	4.67	6.21
RPMI 5 mM glucose + 10% dialyzed FBS, 5.12 µM	7.77	3.92	6.4
RPMI 5 mM glucose + 10% dialyzed FBS, 15.4 µM	8.34	2.96	7.09
RPMI 5 mM glucose + 10% dialyzed FBS, 46.1 µM	6.8	2.11	4.78

AUC of viability dose-response curve
Conditions	HPLM + 10% dialyzed FBS	RPMI 5 mM glucose + 10% FBS	RPMI 5 mM glucose + 10% dialyzed FBS
[4]	102	125	113
[5]	81	93.4	98
